“Also recorded” adds a separate entry of the source.
Legend:
[1] = tested on: allogeneic skin grafts; experiment: Trial II, skin graft survival test in rats (recipient Osborne Mendel, donor Lewis), vs azathioprine; assay type: in vivo; conditions: far smaller quantities of Substance A
Method: Route of Intragastric via stomach tube,
suspended in 0.8% Methocel
Volume: 0.01 ml per gram body weight and dose
Trial II/from Day -2 before grafting to Day +9
Trial II/4-8 mg/kg daily increasing over 12 days
Two allogeneic skin grafts from a donor rat are transferred to a receiving rat from an unrelated inbred strain. The panniculus carnosus attached to the graft may either be removed by dissection (suprapannicular graft) or be left on the graft (subpannicular graft). Grafting is conducted on Day 0 under light ether narcosis subsequent to shaving and cleanup of the grafting sites. The grafts are fixed on the graft receptor sites by dressing with a suitable bandage. From Day +9 a protective colar is placed on the animals, the bandage removed, and the status of the grafts daily controlled. The assessment of the graft function is conducted by means of a graduation scale, which allows for differentiation of rejection corresponding to a three-degree of severity score. The trial ends on the day when 50% of the animals of one group have rejected both grafts. The lengthening of the graft survival time in comparison to the controls is determined in days.
Recipient: Osborne Mendel .male., Donor: Lewis .male.. Two suprapannicular grafts were transferred from a donor to a recipient.

[2] = tested on: allogeneic skin grafts; experiment: Skin graft survival test in rhesus monkeys; assay type: in vivo, rhesus monkeys (Macaca mulatta); conditions: for lengthening of the normal graft survival time: 10 mg/kg i.g. 1× daily for 10 days, vs normal survival stated as ten days
Method: Preparation: Freshly prepared before each
Route of Intragastric via stomach tube,
administration: suspended in 0.8% Methocel
Altogether four allogeneic skin grafts from two different donor animals are transferred crosswise to one unrelated receiving animal. At first the grafts are removed under ketamine narcosis from the shaven and cleaned stomach skin of the donor animals and freed of any fat attached. The four graft receptor sites are prepared on the shaven and cleaned back of the receiving animal under ketamine narcosis by removing suitably sized pieces of skin. Subsequent to successful hemostasis, the grafts are spread out on the graft receptor sites and sewn to the edges of the wound. The wound is covered with a suitable dressing material and this is fixed with an elastic bandage. The bandage is opened on the 5th, 7th, and 9th day after grafting and the function of the grafts examined. On the 9th day the bandage is no longer replaced. The graft function is then controlled daily until rejection has occurred.
Controls are dispensed within this trial on primates for ethical reasons. Comparisons are drawn with the normal survival of allogeneic skin grafts or historic controls, stated as ten days.

[3] = tested on: Osteosarcoma C22LR; experiment: Osteosarcoma C22LR, growth retardation in mice; assay type: in vivo, BCBA mice; conditions: for Surviving Animals: n = 5
Method: (§1) Preparation: As suspension freshly prepared
(§2) before each administration
(§3) Route of Oral, suspended in 0.8%
(§4) administration: Methocel
(§5) Volume: 0.01 per gram body weight
(§6) daily for 9 days, if not
Osteosarcoma. C22LR in BCBA mice (C57B1×CBA/Rij, Fl hybrid). The tumor is subcutaneously inoculated bilaterally into the sides. It is measured at least 2×weekly in three dimensions. The terminal point is the retardation of growth. It is defined as the difference of the average time in which the volume of five to ten tumors in five treated animals reaches a given value in comparison with that of five to ten tumors in the control animals. This value was determined as four times that of the average volume at commencement of treatment.

[4] = tested on: Lewis Lung Tumor; experiment: Lewis Lung Tumor, growth retardation in mice; assay type: in vivo, BCBA mice; conditions: for Surviving Animals: n = 5
Method: as §1, §2, §3, §4, §5, §6
Lewis Lung Tumor in BCBA mice. The procedure is the same as with osteosarcoma. The volume of the tumor was determined here at 800 mm^3 (=product of the diameters in three dimensions).

[5] = tested on: growing hair follicle; experiment: Antiproliferative activity upon topical administering to rats (hair growth); assay type: in vivo, Long Evans rats; conditions: 0.5% solution in absolute ethanol, 5-10 mg/animal daily
Method: No control standard known
Preparation: Fresh before each
Route of Topically by pipetting as
administration: 0.5% solution in absolute
Volume: 1 ml per animal and dose
Tested dose: 5 mg/animal daily for 14 days
10 mg/animal daily for 7 days
A protective collar is placed on male rats of the Long Evans strain, fur color "black-hooded." A rectangle measuring 3 cm long and 1.5 cm wide is marked with the aid of a template on the dorsal skin in the region of the black dorsal hair strip subsequent to shaving and cleansing. The test solution is slowly applied dropwise to this rectangle, so as to avoid it running off onto the surrounding skin. The solvent is applied in the same manner to the control animals. After 21 days of treatment the hair growth is assessed on the treated areas compared with the control areas.

[6] = tested on: Mammary adenocarcinoma 16; experiment: Mammary adenocarcinoma 16 (CCTM test); assay type: in vivo, mice; conditions: SC PO, Days 1-16, 56 mg/kg
Method: The CCTM assay assesses the antitumor activity of a test agent by measurement of the treatment-induced delay of tumor growth. Tumor growth delay is used because, unlike T/C type assays, the measured parameter is independent of time.
Test animals are Fl hybrid mice derived from the inbred strain of tumor origin. After the required mice are randomized, they receive SC implants of either trocar fragments (30-50 mg) or appropriate dilutions of tumor brei on Day 0. Samples for each donor tumor or from the final brei are incubated in thioglycolate media as a check for gross contamination of the tumor material. After tumor inoculation, the test mice are rerandomized and distributed to test group as per the specific test protocol.
Survival is checked daily for each test group. Both the number dead and the number living are counted and recorded. All dead mice are autopsied to ascertain the probable cause of death (drug or tumor). Clinical signs are observed and recorded for all test groups. Individual body weights are recorded at least weekly as directed in the specific test protocol. Each tumor is measured with calipers as per the protocol (usually two to three times/week). […]
This time may be calculated as:
Td=tumor volume doubling time (days), calculated from the slope of a long-linear least squares fit of the growth curve between 63 and 1000 mg for each control tumor. […]
T,C=median time in days for the tumor in a given group to reach a predetermined evaluation size (usually 750 mg). […] These values are calculated by log/linear interpolation between the nearest tumor measurements on either side of the evaluation size. […]
All tumor-free survivors (cures) are excluded from the calculation of T-C and cell kill values. Thus, all calculated end points represent the response of the treatment failures.

[7] = tested on: BN leukemia; experiment: BN leukemia (CCLS test); assay type: in vivo, mice; conditions: for % T/C: IV PO
Excerpt: (§7) The two types of assays used were the standard CCTM test for solid tumors and the CCLS test for leukemia.
(§8) The CCLS assay assesses the antitumor activity of a test agent by measurement of the treatment-induced increase in host lifespan. Only rapidly growing tumors that kill their respective hosts in less than 30 days are appropriate for life span assays.
Test animals are appropriate Fl hybrid mice derived for the inbred strain of tumor origin. After the required mice are randomized, they receive implants (IP, IV, IC, IM, or SC) of appropriately diluted ascites fluid or dilutions of tumor brei on Day 0. A sample from the final inocula is incubated in thioglycolate media as a check for gross contamination of the tumor material. After tumor inoculation, the test mice are rerandomized and distributed to test groups as per the specific test protocol.
(§9) Test agents are dissolved or suspended in any of several vehicles and are administered by the routes and treatment schedules specified on the test protocol. All animals are monitored for signs of acute toxicity and side effects.
Survival is checked daily for each test group. Both the number dead and the number living are counted and recorded. All dead mice are autopsied to ascertain the probably cause of death (drug or tumor). Clinical signs are observed and recorded for all test groups. Group body weights are recorded at least weekly as directed in the specific test protocol.
For most life span assays, any animal surviving more than 60 days is sacrificed and autopsied to determine the tumor burden present. It is possible that specific protocols involving unusual tumors or routes of tumor implantation will call for longer termination dates.
(§10) Td=tumor volume doubling time (days), calculated from the slope of a log-linear least square fit of the survival time vs inoculum curve for titrated inocula of tumor cells in untreated mice.
MLS=median life span, calculated by a method appropriate for grouped observations.
NOTE: Some adjustments in these calculations are made to make comparisons with the appropriate control cage more accurate. The slope of the titration curve (least squares fit) is used to calculate the Td for the tumor, but the life span increases of the treated animals are based only on the MLS of the control cage with the same initial inoculum (not on the least square approximation from the titration curve). This in theory reduces any effects from dilution, etc.
All tumor-free survivors (cures) are excluded from the calculation of MLS and cell kill values. Thus all calculated end points represent the response of the treatment failures.

[8] = tested on: L5222 leukemia; experiment: L5222 leukemia (CCLS test); assay type: in vivo, mice; conditions: IP PO
Excerpt: as §7, §8
Test animals are appropriate Fl hybrid mice derived for the inbred strain of tumor origin. After the required mice are randomized, they receive implants (IP, IV, IC, IM, or SC) of appropriately diluted ascites fluid or dilutions of tumor brei on Day 0. […]
as §9
Survival is checked daily for each test group. Both the number dead and the number living are counted and recorded. […] Clinical signs are observed and recorded for all test groups. Group body weights are recorded at least weekly as directed in the specific test protocol. […]
as §10
MLS=median life span, calculated by a method appropriate for grouped observations. […]

[9] = tested on: humoral immunoresistance; experiment: Susceptibility to bacterial infections in treated rats; assay type: in vivo; conditions: sustained period, high doses
Excerpt: An inhibition of the humoral immune system (antibody-producing B-lymphocytes) by the substances of the invention and a possibility of therapy resulting from this, e.g., for autoaggression diseases, which are characterized by an increase in antibody production against the body's own tissues, can currently only be concluded indirectly.

[10] = in vivo; conditions: mouse, po

## Nc1ccc(C(=O)Nc2ccccc2N)cc1 [Substance A, 4-Amino-N-(2'-aminophenyl)-benzamide]
[1]
  effect compared with standard azathioprine: equally effective as the immunosuppressive standard azathioprine
[2]; rhesus monkeys, 10 mg/kg i.g., 10 mg/kg
  immunosuppressive action: distinct immunosuppressive action; also recorded: markedly clear
[2]; test animal YL
  lengthening of the normal graft survival time: four to five
[2]; test animal ZE
  lengthening of the normal graft survival time: six to seven
[3]; 1 × 240 mg/kg PO
  Surviving Animals: 5/5
[3]; 1 × 240 mg/kg PO, p = 0,001
  Retardation in Growth of Tumor (Days): 3,1 Days
[3]; 2 × 180 mg/kg PO
  Retardation in Growth of Tumor (Days): 9,6 Days
  Surviving Animals: 1/5
[3]; 4 × 120 mg/kg PO
  Retardation in Growth of Tumor (toxic death): toxic death
[3]; 9 × 60 mg/kg IP, controls 5/5
  Surviving Animals: 5/5
[3]; 9 × 60 mg/kg IP, p = 0,0001
  Retardation in Growth of Tumor (Days): 7,8 Days
[3]; mouse, in vivo
  assessment of activity: good activity
[4]; 1 × 240 mg/kg PO
  Surviving Animals: 5/5
[4]; 1 × 240 mg/kg PO, p = 0,018
  Retardation in Growth of Tumor (Days): 3,1 Days
[4]; 2 × 180 mg/kg PO
  Retardation in Growth of Tumor (toxic death): toxic death
  Surviving Animals: 0/5
[4]; 4 × 120 mg/kg PO
  Retardation in Growth of Tumor (toxic death): toxic death
  Surviving Animals: 0/5
[4]; 9 × 60 mg/kg IP, controls 5/5
  Surviving Animals: 5/5
[4]; 9 × 60 mg/kg IP, p = 0,061
  Retardation in Growth of Tumor (Days): 3,8 Days
[4]; mouse, in vivo
  assessment of activity: moderate activity
[5]
  inhibition of hair growth / topical antiproliferative action: clear inhibition of hair growth; also recorded: distinct antiproliferate action
[6]
  (T-C) tumor growth delay: 11 days
  Cell Kill Gross: 3.0 log10
  Cell Kill Net: -1.2 logs
[7]; BN leukemia
  anticancer activity: significant anticancer activity has been demonstrated and confirmed
[7]; Days 1-5, 20 mg/kg
  % T/C: 356%
[7]; Days 1-5, 30 mg/kg
  % T/C: 430%
[7]; Days 7-11, 14-18, 20 mg/kg
  % T/C: 335%
[7]; Days 7-11, 14-18, 21-25, 20 mg/kg
  % T/C: 474%
[7]; Days 7-11, 14-18, 21-25, 28-32, 35-39, 8 mg/kg
  % T/C: 343%
[8]; Days 1, 4, 7, 48 mg/kg
  % T/C: 150%
[8]; Days 1-9, 15 mg/kg
  % T/C: 169%
[9]
  susceptibility to bacterial infections: increased susceptibility to bacterial infections
[10]
  LD50 at 168 h: 625 mg/kg
